From ChEMBL document CHEMBL1201862, “PubChem BioAssay data set” (2004)
One block for each compound: values may come before it. Active and inactive are the calls of the source.

Assays:
[1] = target: T1, Microphthalmia-associated transcription factor (Homo sapiens, UniProt O75030); test: TRPM1 promoter luciferase signal decrease, dose response, MITF inhibitor project, cell-based, SK-MEL-5, cherry-picked, set 3 (AID 493073); assay type: functional
T1 sequence (O75030 whole entry): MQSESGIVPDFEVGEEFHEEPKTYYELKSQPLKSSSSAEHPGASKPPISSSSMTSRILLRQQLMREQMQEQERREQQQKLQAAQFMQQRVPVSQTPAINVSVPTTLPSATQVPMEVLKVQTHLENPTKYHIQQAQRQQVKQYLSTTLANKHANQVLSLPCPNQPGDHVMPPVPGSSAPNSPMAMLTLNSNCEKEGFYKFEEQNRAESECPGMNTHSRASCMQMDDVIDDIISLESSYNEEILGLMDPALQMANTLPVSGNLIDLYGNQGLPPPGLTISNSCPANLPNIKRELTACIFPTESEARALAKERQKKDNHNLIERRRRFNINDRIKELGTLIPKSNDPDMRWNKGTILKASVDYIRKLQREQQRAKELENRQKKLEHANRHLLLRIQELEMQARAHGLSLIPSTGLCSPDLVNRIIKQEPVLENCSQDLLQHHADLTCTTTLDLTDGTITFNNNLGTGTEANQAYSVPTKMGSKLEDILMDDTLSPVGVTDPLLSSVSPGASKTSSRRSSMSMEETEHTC

[2] = cytotoxicity toward NIH3T3 fibroblasts, dose response, counter-screen, cell-based, ATP luminescence, mouse fibroblasts (AID 2010); assay type: functional;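 note: cells exposed to compound for about 90 hours before reading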
[3] = inhibitors of intracellular T. cruzi replication, confirmation, NIH3T3 host cells, beta-gal luminescence (AID 2044); assay type: functional, cell-based;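 note: intracellular parasites grown in NIH/3T3 mouse fibroblasts as host cells; luminescent beta-galactosidase reporter signal from transgenic T. cruzi replicating inside host cells; inhibitors lower the luminescence signal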
Trypanosoma cruzi = test: growth inhibition of intracellular Trypanosoma cruzi, dose response, cell-based, plate reader, dry powder, set 3 (AID 493197); assay type: functional
[4] = cytotoxicity in NIH/3T3 mouse fibroblasts, dose response, cytotoxicity control, cell-based, mouse embryonic fibroblasts, dry powder, set 2 (AID 493247); assay type: functional; conditions: Fibroblast
[5] = growth suppression of PTEN-null colon cells, dose response, cell-based, HCT116 PTEN knockout (AID 1047); assay type: functional;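 note: HCT116 colon tumor cells with PTEN knocked out; cells exposed to compound for 60 hours before readout; potency for loss of cell viability measured by luminescence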
[6] = growth suppression of beta-catenin-knockout colon cells, dose response, cell-based, HCT116, human colon tumor (AID 1045); assay type: functional;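 note: HCT116 colon tumor cells with beta catenin knocked out; cells exposed to compound for 60 hours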
[7] = target: Alkaline phosphatase, placental type (Homo sapiens, UniProt P05187); test: PLAP enzyme inhibitors, confirmation, biochemical, luminescence (AID 1512); assay type: functional
Sequence of Alkaline phosphatase, placental type (P05187 whole entry): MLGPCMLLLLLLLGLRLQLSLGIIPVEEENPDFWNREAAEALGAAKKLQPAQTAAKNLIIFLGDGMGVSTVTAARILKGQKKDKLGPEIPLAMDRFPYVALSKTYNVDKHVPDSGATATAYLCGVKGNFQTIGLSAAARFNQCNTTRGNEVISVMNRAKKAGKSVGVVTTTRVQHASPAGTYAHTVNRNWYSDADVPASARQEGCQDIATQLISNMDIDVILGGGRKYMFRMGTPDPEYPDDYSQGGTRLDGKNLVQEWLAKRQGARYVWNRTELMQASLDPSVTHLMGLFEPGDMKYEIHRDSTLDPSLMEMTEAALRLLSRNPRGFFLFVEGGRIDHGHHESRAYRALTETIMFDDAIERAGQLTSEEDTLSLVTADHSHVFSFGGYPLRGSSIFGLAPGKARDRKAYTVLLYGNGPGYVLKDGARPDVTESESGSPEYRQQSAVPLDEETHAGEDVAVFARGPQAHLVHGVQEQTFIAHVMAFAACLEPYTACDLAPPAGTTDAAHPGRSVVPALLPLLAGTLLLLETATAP

Estrogen receptor = target: T2, Estrogen receptor (Homo sapiens, UniProt P03372);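 note: potency for inhibiting coactivator peptide recruitment to the receptor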
T2 sequence (P03372 whole entry): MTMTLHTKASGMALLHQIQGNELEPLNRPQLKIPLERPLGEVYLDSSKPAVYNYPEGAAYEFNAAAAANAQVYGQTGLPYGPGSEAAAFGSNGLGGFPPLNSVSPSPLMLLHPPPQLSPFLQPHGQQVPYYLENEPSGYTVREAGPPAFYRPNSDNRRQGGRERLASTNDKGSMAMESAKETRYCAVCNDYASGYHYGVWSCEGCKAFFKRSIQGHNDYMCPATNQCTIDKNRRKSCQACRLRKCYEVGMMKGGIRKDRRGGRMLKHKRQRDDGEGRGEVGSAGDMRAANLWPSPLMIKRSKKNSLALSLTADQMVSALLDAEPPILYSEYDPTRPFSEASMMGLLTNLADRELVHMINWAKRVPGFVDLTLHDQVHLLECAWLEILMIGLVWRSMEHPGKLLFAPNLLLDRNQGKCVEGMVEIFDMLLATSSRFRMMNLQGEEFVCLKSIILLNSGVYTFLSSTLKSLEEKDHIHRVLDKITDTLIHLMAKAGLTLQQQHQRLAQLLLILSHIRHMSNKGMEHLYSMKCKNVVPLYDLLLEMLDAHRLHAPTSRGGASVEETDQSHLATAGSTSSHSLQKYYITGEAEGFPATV

[8] = target: T3, Alkaline phosphatase, tissue-nonspecific isozyme (Homo sapiens, UniProt P05186); test: human TNAP enzyme inhibitors, SAR follow-up, biochemical, luminescent, dose response (AID 1056)
T3 sequence (P05186 whole entry): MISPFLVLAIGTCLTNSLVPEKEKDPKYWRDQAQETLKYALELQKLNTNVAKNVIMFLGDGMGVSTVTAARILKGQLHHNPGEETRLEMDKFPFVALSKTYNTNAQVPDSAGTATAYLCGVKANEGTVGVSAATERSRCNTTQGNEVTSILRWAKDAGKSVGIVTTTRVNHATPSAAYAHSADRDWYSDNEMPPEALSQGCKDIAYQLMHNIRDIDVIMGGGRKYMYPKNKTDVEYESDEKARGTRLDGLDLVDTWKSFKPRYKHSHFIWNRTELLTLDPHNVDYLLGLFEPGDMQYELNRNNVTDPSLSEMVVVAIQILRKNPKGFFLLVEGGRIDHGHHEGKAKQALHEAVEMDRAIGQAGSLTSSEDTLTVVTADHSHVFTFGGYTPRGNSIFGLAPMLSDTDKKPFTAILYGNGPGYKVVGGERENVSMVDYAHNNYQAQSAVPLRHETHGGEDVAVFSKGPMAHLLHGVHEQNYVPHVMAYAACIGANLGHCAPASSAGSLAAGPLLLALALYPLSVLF

[9] = target: Eukaryotic translation initiation factor 4H (Homo sapiens, UniProt Q15056); test: human eIF4H binding inhibitors, primary screen, translation initiation inhibitor project, biochemical, uHTS, fluorescence polarization (AID 2012)
[10] = target: Polyadenylate-binding protein 1 (Homo sapiens, UniProt P11940); test: PABP poly(A) RNA binding inhibitors, primary screen, biochemical, fluorescence polarization, uHTS (AID 2014)
Sequence of Polyadenylate-binding protein 1 (P11940 whole entry): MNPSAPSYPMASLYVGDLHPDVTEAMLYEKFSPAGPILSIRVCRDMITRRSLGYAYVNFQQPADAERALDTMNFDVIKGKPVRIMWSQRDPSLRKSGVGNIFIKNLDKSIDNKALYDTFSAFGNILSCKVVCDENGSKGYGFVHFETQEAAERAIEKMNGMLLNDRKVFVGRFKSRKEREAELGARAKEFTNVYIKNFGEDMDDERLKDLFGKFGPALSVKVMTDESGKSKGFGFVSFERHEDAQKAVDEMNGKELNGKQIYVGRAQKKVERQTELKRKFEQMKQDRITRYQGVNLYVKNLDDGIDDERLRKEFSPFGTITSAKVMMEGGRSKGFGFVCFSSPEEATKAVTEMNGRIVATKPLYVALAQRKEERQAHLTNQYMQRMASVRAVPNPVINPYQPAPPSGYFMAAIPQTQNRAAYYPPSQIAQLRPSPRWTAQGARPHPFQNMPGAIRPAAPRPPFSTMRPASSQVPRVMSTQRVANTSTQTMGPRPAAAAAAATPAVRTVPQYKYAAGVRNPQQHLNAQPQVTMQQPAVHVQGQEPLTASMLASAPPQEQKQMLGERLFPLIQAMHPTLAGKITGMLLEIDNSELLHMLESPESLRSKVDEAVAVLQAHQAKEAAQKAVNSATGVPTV

[11] = target: DNA dC->dU-editing enzyme APOBEC-3G (Homo sapiens, UniProt Q9HC16); assay type: functional;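 note: Dose-response counterscreen measuring inhibition of APOBEC3G DNA deaminase activity, run while confirming APOBEC3A inhibitors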
Sequence of DNA dC->dU-editing enzyme APOBEC-3G (Q9HC16 whole entry): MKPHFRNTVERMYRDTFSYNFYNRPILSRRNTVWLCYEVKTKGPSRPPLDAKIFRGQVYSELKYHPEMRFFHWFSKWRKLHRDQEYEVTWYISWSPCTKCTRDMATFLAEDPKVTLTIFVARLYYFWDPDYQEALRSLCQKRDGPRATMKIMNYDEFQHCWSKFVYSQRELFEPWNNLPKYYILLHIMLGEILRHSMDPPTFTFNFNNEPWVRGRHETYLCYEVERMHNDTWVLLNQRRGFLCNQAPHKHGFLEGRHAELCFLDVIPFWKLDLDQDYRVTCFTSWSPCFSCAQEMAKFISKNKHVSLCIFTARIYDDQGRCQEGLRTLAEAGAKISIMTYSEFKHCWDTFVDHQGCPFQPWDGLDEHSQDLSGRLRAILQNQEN

[12] = target: DNA dC->dU-editing enzyme APOBEC-3A (Homo sapiens, UniProt P31941); test: Dose Response confirmation of small molecule APOBEC3A DNA Deaminase Inhibitors via a fluorescence-based single-stranded DNA deaminase assay. [Related pubchem assays (depositor defined):AID493011, AID493024]; assay type: functional
Sequence of DNA dC->dU-editing enzyme APOBEC-3A (P31941 whole entry): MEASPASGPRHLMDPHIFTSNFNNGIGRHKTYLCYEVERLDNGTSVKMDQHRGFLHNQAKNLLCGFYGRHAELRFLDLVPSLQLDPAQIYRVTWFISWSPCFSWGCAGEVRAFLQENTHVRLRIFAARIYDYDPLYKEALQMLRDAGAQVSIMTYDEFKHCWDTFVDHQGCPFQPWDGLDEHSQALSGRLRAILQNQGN

Phosphomannomutase 2 = Phosphomannomutase 2 (Homo sapiens, UniProt O15305); test: Counter screen SAR assay for PMM2 inhibitors via a fluorescence intensity assay. [Related pubchem assays (depositor defined):AID1545, AID1574]
Sequence of Phosphomannomutase 2 (O15305 whole entry): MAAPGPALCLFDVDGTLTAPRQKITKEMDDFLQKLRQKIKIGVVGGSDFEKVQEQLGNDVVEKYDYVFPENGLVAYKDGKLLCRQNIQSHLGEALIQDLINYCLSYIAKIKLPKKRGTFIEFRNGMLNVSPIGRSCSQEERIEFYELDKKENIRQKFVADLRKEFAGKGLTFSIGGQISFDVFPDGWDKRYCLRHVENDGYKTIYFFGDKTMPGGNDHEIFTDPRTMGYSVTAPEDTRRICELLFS

[13] = target: T4, Delta-type opioid receptor (Homo sapiens, UniProt P41143); test: DOR agonists, SAR follow-up, image-based (AID 2370); assay type: functional
T4 sequence (P41143 whole entry): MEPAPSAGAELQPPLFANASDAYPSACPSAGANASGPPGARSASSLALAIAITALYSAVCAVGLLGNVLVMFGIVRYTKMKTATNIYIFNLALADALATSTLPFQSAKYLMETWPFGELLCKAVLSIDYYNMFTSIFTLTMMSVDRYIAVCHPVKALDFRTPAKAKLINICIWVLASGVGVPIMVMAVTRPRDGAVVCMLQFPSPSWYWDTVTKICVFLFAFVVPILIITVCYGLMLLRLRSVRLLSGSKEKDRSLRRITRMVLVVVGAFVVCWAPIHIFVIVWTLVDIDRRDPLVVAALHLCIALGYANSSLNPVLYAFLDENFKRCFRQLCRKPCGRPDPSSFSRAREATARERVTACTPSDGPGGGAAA

[14] = target: T5, Kappa-type opioid receptor (Homo sapiens, UniProt P41145); test: KOR agonist analogs, imaging readout, SAR follow-up, image-based (AID 2359); assay type: functional
T5 sequence (P41145 whole entry): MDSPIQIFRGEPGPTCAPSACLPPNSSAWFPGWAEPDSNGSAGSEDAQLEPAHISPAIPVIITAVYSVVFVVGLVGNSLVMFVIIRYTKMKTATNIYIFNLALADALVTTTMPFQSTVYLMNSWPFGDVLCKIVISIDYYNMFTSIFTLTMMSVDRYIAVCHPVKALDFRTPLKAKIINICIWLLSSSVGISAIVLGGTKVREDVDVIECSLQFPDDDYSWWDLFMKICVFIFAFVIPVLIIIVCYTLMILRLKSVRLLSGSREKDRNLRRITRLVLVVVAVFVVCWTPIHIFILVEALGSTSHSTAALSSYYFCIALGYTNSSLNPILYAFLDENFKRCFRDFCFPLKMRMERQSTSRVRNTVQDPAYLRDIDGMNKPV

Mu-type opioid receptor [15] = target: T6, Mu-type opioid receptor (Homo sapiens, UniProt P35372); test: MOR agonists by imaging, SAR follow-up, image-based (AID 2352); assay type: functional
T6 sequence (P35372 whole entry): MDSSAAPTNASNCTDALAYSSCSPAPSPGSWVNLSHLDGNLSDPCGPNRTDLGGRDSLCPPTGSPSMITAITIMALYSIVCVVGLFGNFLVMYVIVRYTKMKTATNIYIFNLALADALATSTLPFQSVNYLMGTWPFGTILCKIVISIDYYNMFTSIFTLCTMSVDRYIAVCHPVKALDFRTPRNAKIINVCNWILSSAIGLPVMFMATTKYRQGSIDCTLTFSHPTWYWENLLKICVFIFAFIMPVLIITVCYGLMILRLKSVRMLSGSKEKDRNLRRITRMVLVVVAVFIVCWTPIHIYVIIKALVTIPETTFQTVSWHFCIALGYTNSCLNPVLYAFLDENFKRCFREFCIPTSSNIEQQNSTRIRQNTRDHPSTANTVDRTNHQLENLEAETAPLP

[16] = target: T5, Kappa-type opioid receptor; test: SAR analysis of small molecule agonists of the kappa opioid receptor via a luminescent beta-arrestin assay. [Related pubchem assays (depositor defined):AID1777, AID1786, AID1966, AID2133, AID2136, AID2348, AID2352, AID2357, AID2359, AID2370, AID2420, AID2478, AID2491, AID2492, AID2493, AID2497, AID2498, AID2500, AID449737, AID488822, AID488842]; assay type: functional
[17] = target: T5, Kappa-type opioid receptor; assay type: functional
Mu-type opioid receptor [18] = target: T6, Mu-type opioid receptor; test: MOR antagonists, SAR follow-up, image-based (AID 2420); assay type: functional;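 note: compounds added before stimulation of receptor with agonist DAMGO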
[19] = target: T4, Delta-type opioid receptor; test: DOR antagonists, SAR follow-up, image-based (AID 2357); assay type: functional
[20] = target: T5, Kappa-type opioid receptor; test: KOR antagonists by imaging, SAR follow-up, image-based (AID 2348); assay type: functional
Mu-type opioid receptor [21] = target: T6, Mu-type opioid receptor; test: HTS Image-Based Screen for Agonists of the MOR Receptor. [Related pubchem assays (depositor defined):AID1777, AID1785, AID1786, AID2133]; assay type: functional
[22] = target: T4, Delta-type opioid receptor; test: HTS Image-Based Screen for Antagonists of the DOR Receptor. [Related pubchem assays (depositor defined):AID1777, AID1785, AID1786, AID2133]; assay type: functional
[23] = target: T4, Delta-type opioid receptor; test: HTS Image-Based Screen for Agonists of the DOR Receptor. [Related pubchem assays (depositor defined):AID1777, AID1786, AID2133]; assay type: functional
[24] = target: T5, Kappa-type opioid receptor; assay type: functional; remark: listed apart in the source

Compound: O=C(COc1ccccc1)N/N=C/c1ccc([N+](=O)[O-])o1
AC50 [1]: 21.5 µM (active)
EC50 [2]: > 60 µM (not active)
EC50 [3]: 0.122 µM (active)
AC50 (Trypanosoma cruzi): 0.317 µM (active)
AC50 [4]: 21.2 µM (active)
EC50 [5]: 7.39 µM (active)
EC50 [6]: 6.95 µM (active)

IC50 [7]: > 100 µM (inactive)
IC50 (Estrogen receptor): 11.1 µM (active)
IC50 [8]: > 100 µM (inactive)
Compound: CNc1nnc(-c2cc3cc(Cl)ccc3oc2=O)s1

Compound: Oc1ccccc1C=N[n+]1ccccc1
IC50 [9]: > 100 µM (inactive)
IC50 [10]: 5.32 µM (active)
IC50 [11]: 5.33 µM (active)
IC50 [12]: 2.88 µM (active)

IC50 (Phosphomannomutase 2): > 100 µM (inactive)
Compound: O=c1c2ccccc2sn1-c1cccc(I)c1

EC50 [13]: > 32 µM (inactive)
EC50 [14]: 0.125 µM (active)
EC50 (Mu-type opioid receptor [15]): > 32 µM (inactive)
EC50 [16]: 0.821 µM (active)
EC50 [17]: < 0.5 µM
IC50 (Mu-type opioid receptor [18]): > 32 µM (inactive)
IC50 [19]: > 32 µM (inactive)
IC50 [20]: > 32 µM (inactive)
EC50 (Mu-type opioid receptor [21]): > 32 µM (inactive)
IC50 [22]: > 32 µM (inactive)
EC50 [23]: > 32 µM (inactive)
EC50 [24]: 0.22 µM
Compound: O=C(c1ccccn1)N(Cc1ccco1)C1(C(=O)NC2CCCCC2)CCCCC1
